Laboratory results: PubChem BioAssay (NCI)
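Cells were grown in 96-well plates and exposed to each compound for 48 hours at five concentrations; endpoints were interpolated linearly between bracketing concentrations, or set to the highest concentration if not reached. TGI: total growth inhibition.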

Columns and labels:
Test in all cases: inhibition of tumour cell growth, NCI panel, 48 h
NCI-H460 lung = tested on: NCI-H460 lung
SK-MEL-2 melanoma = tested on: SK-MEL-2 melanoma
SK-MEL-5 melanoma = tested on: SK-MEL-5 melanoma
RPMI-8226 leukemia = tested on: RPMI-8226 leukemia
SF-539 CNS = tested on: SF-539 CNS
NCI-H226 lung = tested on: NCI-H226 lung
HOP-92 NSCLC = tested on: HOP-92 NSCLC
KM12 colon = tested on: KM12 colon
EKVX NSCLC = tested on: EKVX NSCLC
NCI-H522 lung = tested on: NCI-H522 lung
T-47D breast = tested on: T-47D breast

Row | SMILES | TGI (NCI-H460 lung) [µM] | TGI (SK-MEL-2 melanoma) [µM] | TGI (SK-MEL-5 melanoma) [µM] | TGI (RPMI-8226 leukemia) [µM] | TGI (SF-539 CNS) [µM] | TGI (NCI-H226 lung) [µM] | TGI (HOP-92 NSCLC) [µM] | TGI (KM12 colon) [µM] | TGI (EKVX NSCLC) [µM] | TGI (NCI-H522 lung) [µM] | TGI (T-47D breast) [µM]
1 | Nc1nccc(NCC2(CO)CCC2)n1 | > 100 | > 100 | > 100 | > 100 | > 100 | > 100 | > 100 | > 100 | > 100 | > 100 | > 100
2 | CCOC(=O)C(NC(=O)CC)(Nc1ccc(S(=O)(=O)Nc2onc(C)c2C)cc1)C(F)(F)F (centres undefined) | > 100 | > 100 | > 100 | > 100 | > 100 | > 100 | > 100 | > 100 | > 100 | > 100 | > 100
3 | Nc1cccc(S(=O)(=O)Nc2nnc(S(N)(=O)=O)s2)c1 | > 100 | > 100 | > 100 | > 100 | > 100 | > 100 | > 100 | > 100 | > 100 | > 100 | > 100
4 | Cc1ccc(S(=O)(=O)[C@@H](Cl)[C@H]2N=C(Cl)NN=C2c2ccccc2)cc1 | > 100 | 34.8 | 34.5 | > 100 | 61.1 | 61 | 54.3 | 50 | > 100 | 35.9 | > 100
